Measured values reported in US20100298141A1, “SUBSTITUTED PYRIDINE N-OXIDE HERBICIDES” (E. I. DU PONT DE NEMOURS AND COMPANY, priority 2007, published 2010).

Columns and labels:
corn = assay: Test A pre-/postemergence greenhouse test; format: in vivo, Zea mays; details: for Plant response rating, Corn: 0 to 100 scale where 0 is no effect and 100 is complete control; for Corn plant response rating: 0 to 100 scale
Summary of the method: (§1)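 Visual injury ratings against untreated controls, taken roughly ten days after treatment in greenhouse. Plants were sprayed postemergence at one- to two-leaf stage (2–10 cm tall); at the same time, seeded loam/sand soil received a directed preemergence spray. Formulation: non-phytotoxic solvent mixture with surfactant.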

giant foxtail = assay: Test A pre-/postemergence greenhouse test; format: in vivo, Setaria faberi; details: for Plant response rating, Foxtail, Giant: 0 to 100 scale where 0 is no effect and 100 is complete control; for Foxtail, Giant plant response rating: 0 to 100 scale
Summary of the method: as §1

morningglory = assay: Test A pre-/postemergence greenhouse test; format: in vivo, Ipomoea spp.; details: for Plant response rating, Morningglory: 0 to 100 scale where 0 is no effect and 100 is complete control; for Morningglory plant response rating: 0 to 100 scale
Summary of the method: as §1

crabgrass = assay: Test A pre-/postemergence greenhouse test; format: in vivo, Digitaria sanguinalis; details: for Plant response rating, Crabgrass, Large: 0 to 100 scale where 0 is no effect and 100 is complete control; for Crabgrass, Large plant response rating: 0 to 100 scale
Summary of the method: as §1

redroot pigweed = assay: Test A pre-/postemergence greenhouse test; format: in vivo, Amaranthus retroflexus; details: for Plant response rating, Pigweed: 0 to 100 scale where 0 is no effect and 100 is complete control; for Pigweed plant response rating: 0 to 100 scale
Summary of the method: as §1

barnyardgrass [1] = assay: Test A pre-/postemergence greenhouse test; format: in vivo, Echinochloa crus-galli; details: for Plant response rating, Barnyardgrass: 0 to 100 scale where 0 is no effect and 100 is complete control; for Barnyardgrass plant response rating: 0 to 100 scale
Summary of the method: as §1

wheat = assay: Test A pre-/postemergence greenhouse test; format: in vivo, Triticum aestivum; details: for Plant response rating, Wheat: 0 to 100 scale where 0 is no effect and 100 is complete control; for Wheat plant response rating: 0 to 100 scale
Summary of the method: as §1

umbrella sedge = assay: Test C flooded paddy test; format: in vivo, Cyperus difformis; details: Flood
Description: (§2) At time of treatment, test pots were flooded to 3 cm above the soil surface, treated by application of test compounds directly to the paddy water, and then maintained at that water depth for the duration of the test. Treated plants and controls were maintained in a greenhouse for 13 to 15 days, after which time all species were compared to controls and visually evaluated. […] A dash (-) response means no test result.

duck salad = assay: Test C flooded paddy test; format: in vivo, Heteranthera limosa; details: Flood
Description: as §2

rice = assay: Test C flooded paddy test; format: in vivo, Oryza sativa; details: Flood
Description: as §2

barnyardgrass [2] = assay: Test C flooded paddy test; format: in vivo, Echinochloa crus-galli; details: Flood
Description: as §2

velvetleaf = assay: Test A pre-/postemergence greenhouse test; format: in vivo, Abutilon theophrasti; details: for Plant response rating, Velvetleaf: 0 to 100 scale where 0 is no effect and 100 is complete control; for Velvetleaf plant response rating: 0 to 100 scale
Summary of the method: as §1

[3] = Postemergence, 500 g ai/ha, 0 is no effect, 100 is complete control
[4] = Preemergence, 125 g ai/ha, 0 no effect, 100 complete control
[5] = 250 g ai/ha, scale 0 to 100, 0 no effect, 100 complete control, 13 to 15 days
[6] = 62 g ai/ha, scale 0 to 100, 0 no effect, 100 complete control, 13 to 15 days
[7] = 31 g ai/ha, scale 0 to 100 (0 no effect, 100 complete control)
[8] = 125 g ai/ha, scale 0 to 100, 0 no effect, 100 complete control, 13 to 15 days

Cc1cc[n+]([O-])c(S(=O)(=O)Cc2c(C(F)(F)F)nn(CC(F)(F)F)c2Cl)c1 [Compound 49]
90: Plant response rating, Foxtail, Giant (giant foxtail; Preemergence, 500 g ai/ha) | Plant response rating, Crabgrass, Large (crabgrass; Preemergence, 500 g ai/ha) | Plant response rating, Barnyardgrass (barnyardgrass [1]; Preemergence, 500 g ai/ha)
40: Plant response rating, Foxtail, Giant (giant foxtail; Postemergence, 125 g ai/ha) | Plant response rating, Barnyardgrass (barnyardgrass [1]; Postemergence, 125 g ai/ha) | Plant response rating, Velvetleaf (velvetleaf; Preemergence, 500 g ai/ha)
20: Plant response rating, Velvetleaf (velvetleaf; Postemergence, 125 g ai/ha)
80: Foxtail, Giant plant response rating (giant foxtail; [4]) | Pigweed plant response rating (redroot pigweed; [4])
100: Plant response rating, Pigweed (redroot pigweed; Preemergence, 500 g ai/ha)
30: Morningglory plant response rating (morningglory; [4]) | Plant response rating, Morningglory (morningglory; Preemergence, 500 g ai/ha) | Plant response rating, Crabgrass, Large (crabgrass; Postemergence, 125 g ai/ha) | Plant response rating, Wheat (wheat; Preemergence, 500 g ai/ha) | Velvetleaf plant response rating (velvetleaf; [3])
10: Pigweed plant response rating (redroot pigweed; [3]) | Plant response rating, Sedge, Umbrella (umbrella sedge; [5])
70: Foxtail, Giant plant response rating (giant foxtail; [3]) | Crabgrass, Large plant response rating (crabgrass; [3]) | Crabgrass, Large plant response rating (crabgrass; [4]) | Barnyardgrass plant response rating (barnyardgrass [1]; [3]) | Barnyardgrass plant response rating (barnyardgrass [1]; [4])
0: Plant response rating, Corn (corn; Postemergence, 125 g ai/ha) | Corn plant response rating (corn; [3]) | Corn plant response rating (corn; [4]) | Plant response rating, Corn (corn; Preemergence, 500 g ai/ha) | Plant response rating, Morningglory (morningglory; Postemergence, 125 g ai/ha) | Morningglory plant response rating (morningglory; [3]) | Plant response rating, Pigweed (redroot pigweed; Postemergence, 125 g ai/ha) | Plant response rating, Wheat (wheat; Postemergence, 125 g ai/ha) | Wheat plant response rating (wheat; [3]) | Wheat plant response rating (wheat; [4]) | Plant response rating, Ducksalad (duck salad; [6]) | Plant response rating, Ducksalad (duck salad; [5]) | Plant response rating, Rice (rice; [6]) | Plant response rating, Rice (rice; [5]) | Plant response rating, Barnyardgrass (barnyardgrass [2]; [6]) | Plant response rating, Barnyardgrass (barnyardgrass [2]; [5]) | Velvetleaf plant response rating (velvetleaf; [4])

CC(c1c(C(F)(F)F)nn(CC(F)(F)F)c1Cl)S(=O)(=O)c1ccc(Cl)c[n+]1[O-] (centres unmarked) [Compound 55]
90: Plant response rating, Foxtail, Giant (giant foxtail; Preemergence, 500 g ai/ha) | Plant response rating, Crabgrass, Large (crabgrass; Preemergence, 500 g ai/ha) | Pigweed plant response rating (redroot pigweed; [4])
30: Pigweed plant response rating (redroot pigweed; [3]) | Barnyardgrass plant response rating (barnyardgrass [1]; [4]) | Velvetleaf plant response rating (velvetleaf; [3])
65: Plant response rating, Sedge, Umbrella (umbrella sedge; [8])
20: Plant response rating, Rice (rice; [5])
40: Plant response rating, Barnyardgrass (barnyardgrass [1]; Postemergence, 125 g ai/ha) | Plant response rating, Ducksalad (duck salad; [6])
50: Morningglory plant response rating (morningglory; [3]) | Plant response rating, Morningglory (morningglory; Preemergence, 500 g ai/ha) | Plant response rating, Crabgrass, Large (crabgrass; Postemergence, 125 g ai/ha)
100: Plant response rating, Pigweed (redroot pigweed; Preemergence, 500 g ai/ha) | Plant response rating, Barnyardgrass (barnyardgrass [1]; Preemergence, 500 g ai/ha)
80: Foxtail, Giant plant response rating (giant foxtail; [3]) | Crabgrass, Large plant response rating (crabgrass; [3]) | Crabgrass, Large plant response rating (crabgrass; [4]) | Barnyardgrass plant response rating (barnyardgrass [1]; [3])
0: Plant response rating, Corn (corn; Postemergence, 125 g ai/ha) | Corn plant response rating (corn; [3]) | Corn plant response rating (corn; [4]) | Plant response rating, Corn (corn; Preemergence, 500 g ai/ha) | Plant response rating, Morningglory (morningglory; Postemergence, 125 g ai/ha) | Morningglory plant response rating (morningglory; [4]) | Plant response rating, Pigweed (redroot pigweed; Postemergence, 125 g ai/ha) | Plant response rating, Wheat (wheat; Postemergence, 125 g ai/ha) | Wheat plant response rating (wheat; [3]) | Wheat plant response rating (wheat; [4]) | Plant response rating, Wheat (wheat; Preemergence, 500 g ai/ha) | Plant response rating, Sedge, Umbrella (umbrella sedge; [7]) | Plant response rating, Ducksalad (duck salad; [7]) | Plant response rating, Rice (rice; [7]) | Plant response rating, Rice (rice; [6]) | Plant response rating, Rice (rice; [8]) | Plant response rating, Barnyardgrass (barnyardgrass [2]; [7]) | Plant response rating, Barnyardgrass (barnyardgrass [2]; [6]) | Plant response rating, Barnyardgrass (barnyardgrass [2]; [8]) | Plant response rating, Barnyardgrass (barnyardgrass [2]; [5]) | Plant response rating, Velvetleaf (velvetleaf; Postemergence, 125 g ai/ha) | Velvetleaf plant response rating (velvetleaf; [4]) | Plant response rating, Velvetleaf (velvetleaf; Preemergence, 500 g ai/ha)
75: Plant response rating, Sedge, Umbrella (umbrella sedge; [5])
70: Plant response rating, Foxtail, Giant (giant foxtail; Postemergence, 125 g ai/ha)
60: Foxtail, Giant plant response rating (giant foxtail; [4]) | Plant response rating, Ducksalad (duck salad; [8]) | Plant response rating, Ducksalad (duck salad; [5])
